Results from patent publication US6740644B2, “Chemical compounds” (Smithkline Beecham Corporation, priority 1997, dated 2004).

Assays:
[1] = target: T1, A3 receptor (Homo sapiens, UniProt P0DMS8); assay: Reporter gene experiments: A3 receptor gene assay, ECR relative to NECA; details: ECR = concentration ratio relative to NECA = 1
T1 sequence (P0DMS8 1-318): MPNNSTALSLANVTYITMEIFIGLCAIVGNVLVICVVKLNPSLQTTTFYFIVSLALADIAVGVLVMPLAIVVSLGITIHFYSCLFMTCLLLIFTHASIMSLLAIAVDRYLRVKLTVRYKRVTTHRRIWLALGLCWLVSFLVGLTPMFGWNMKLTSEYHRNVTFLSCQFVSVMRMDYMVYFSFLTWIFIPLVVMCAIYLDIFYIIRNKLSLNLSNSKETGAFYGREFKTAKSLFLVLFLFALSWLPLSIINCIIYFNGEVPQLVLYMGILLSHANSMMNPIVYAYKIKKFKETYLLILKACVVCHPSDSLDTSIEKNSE

[2] = target: T2, human adenosine A1 receptor (Homo sapiens, UniProt P30542); assay: Reporter gene experiments: inhibition of forskolin-stimulated SPAP production in CHO cells (CRE/SPAP/HYG), A1; format: cell-based; details: ECR = concentration ratio relative to NECA = 1, CHO cells co-expressing human adenosine A1 receptor
T2 construct: expressed in transfected cells; host or cells: Chinese hamster ovary (CHO) cells containing the CRE/SPAP/HYG reporter gene
T2 sequence (P30542 1-326): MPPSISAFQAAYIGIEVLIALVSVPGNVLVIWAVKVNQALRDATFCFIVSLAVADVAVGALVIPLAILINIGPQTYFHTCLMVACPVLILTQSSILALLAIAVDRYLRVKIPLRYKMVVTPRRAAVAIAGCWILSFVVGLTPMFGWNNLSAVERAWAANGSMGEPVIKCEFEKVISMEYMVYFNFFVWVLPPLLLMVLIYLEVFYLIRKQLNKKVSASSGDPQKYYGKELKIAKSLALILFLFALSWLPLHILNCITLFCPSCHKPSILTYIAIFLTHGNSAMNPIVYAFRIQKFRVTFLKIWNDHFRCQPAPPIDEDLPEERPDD
Experimental: Reporter Gene Experiments
Agonist activity was measured in Chinese hamster ovary (CHO) cells containing the CRE/SPAP/HYG (CRE=cyclic AMP response element; HYG=hygromycin; SPAP=secreted placental alkaline phosphatase) reporter gene, which upon stimulation of cAMP levels produced SPAP. A cell line was used, which stably co-expresses the human adenosine A1 receptor. Cells were plated out in 96-well plates in culture medium and incubated at 37° C. for 1 hour. […] All cells were then incubated for a further 5 hours at 37° C., and cooled to room temperature, after which a substrate for the phosphatase (para-nitrophenol phosphate,pNPP), which is broken down to a coloured reagent) was then added and the 96-well plates are read in a plate reader. From these readings, the concentration-dependence of the inhibition by the agonist of forskolin-stimulated SPAP production, can be calculated.

A3 Receptor Gene Assay ECR [1]	A1 Receptor Gene Assay ECR [2]	melting point [°C]	Molecule
		232 to 233	COC[C@H]1O[C@@H](n2cnc3c(N[C@H](C)CO)ncnc32)[C@H](O)[C@@H]1O [Example 14, N-(2-Hydroxy-1R-methyl-ethyl)-5′-O-methyl-adenosine]
57.3	3.90	202 to 204	COC[C@H]1O[C@@H](n2cnc3c(N[C@@H]4CCC[C@H]4O)ncnc32)[C@H](O)[C@@H]1O [Example 17, N-(2R-Hydroxy-(R)-cyclopentyl)-5′-O-methyl-adenosine]
180	3.30	133 to 134	COC[C@H]1O[C@@H](n2cnc3c(NC4CCOCC4)ncnc32)[C@H](O)[C@@H]1O [Example 2, 5′-O-Methyl-N-(tetrahydro-pyran-4-yl)-adenosine]
5.00	1.27		COC[C@H]1O[C@@H](n2cnc3c(N[C@H](C)Cc4ccccc4)ncnc32)[C@H](O)[C@@H]1O [Example 6, 5′-O-Methyl-N-(1R-methyl-2-phenyl-ethyl)-adenosine]
>116	6.21	225 to 230	COC[C@H]1O[C@@H](n2cnc3c(Nc4ccc(O)c(Cl)c4)ncnc32)[C@H](O)[C@@H]1O [Example 5, N-(3-Chloro-4-hydroxy-phenyl)-5′-O-methyl-adenosine]
>243	1.62		COC[C@H]1O[C@@H](n2cnc3c(NC(C)(C)C)ncnc32)[C@H](O)[C@@H]1O [Example 19, N-tert-Butyl-5′-O-methyl-adenosine]

Second part, the molecule before the results:

Molecule	A3 Receptor Gene Assay ECR [1]	A1 Receptor Gene Assay ECR [2]	melting point [°C]
COC[C@H]1O[C@@H](n2cnc3c(N[C@H]4CCC[C@@H]4OC)ncnc32)[C@H](O)[C@@H]1O [Example 3, N-(2S-Methoxy-(S)-cyclopentyl)-5′-O-methyl-adenosine]	204		
COC[C@H]1O[C@@H](n2cnc3c(NC4CCCC4)nc(C)nc32)[C@H](O)[C@@H]1O [Example 27, N-Cyclopentyl-2-methyl-5′-O-methyl-adenosine]	>263	3.02	
CCOC(=O)N1CCC(Nc2ncnc3c2ncn3[C@@H]2O[C@H](COC)[C@@H](O)[C@H]2O)CC1 [Example 23, 4-[9-(3R,4S-Dihydroxy-5R-methoxymethyl-tetrahydro-furan-2R-yl)-9H-purin-6-ylamino]-piperidine-1-carboxylic acid ethyl ester]	162	2.20	
N-(2,3-Dihydroxy-propylamino)-5′-O-methyl-adenosine [Example 21]	135		
COC[C@H]1O[C@@H](n2cnc3c(N[C@@H]4CCOC4)ncnc32)[C@H](O)[C@@H]1O [Example 1, 5′-O-Methyl-N-(tetrahydro-furan-3R-yl)-adenosine]	>129		
CNS(=O)(=O)CCNc1nc(C)nc2c1ncn2[C@@H]1O[C@H](COC)[C@@H](O)[C@H]1O [Example 25, 2-[9-(3R,4S-Dihydroxy-5R-methoxymethyl-tetrahydro-furan-2R-yl)-2-methyl-9H-purin-6-ylamino]-ethanesulfonic acid methylamide]	>288	1.67	
COC[C@H]1O[C@@H](n2cnc3c(N[C@H]4CCC[C@@H]4F)ncnc32)[C@H](O)[C@@H]1O [Example 20, N-(2S-Fluoro-(S)-cyclopentyl)-5′-O-methyl-adenosine]	54.8		
COC[C@H]1O[C@@H](n2cnc3c(N[C@@H]4CCO[C@H]4C)ncnc32)[C@H](O)[C@@H]1O [Example 4, 5′-O-Methyl-N-(2S-methyl-tetrahydro-furan-3R-yl)-adenosine]	338		
COC[C@H]1O[C@@H](n2cnc3c(N[C@@H]4C[C@@H]5CC[C@H]4C5)ncnc32)[C@H](O)[C@@H]1O (relative stereo) [Example 22, N-rel-[(1S,4R)-Bicyclo[2.2.1]hept-2R-yl]-5′-O-methyl-adenosine]	112		
COC[C@H]1O[C@@H](n2cnc3c(NCC4CC4)nc(C)nc32)[C@H](O)[C@@H]1O [Example 28, N-Cyclopropylmethyl-2-methyl-5′-O-methyl-adenosine]	>99	8.07	
